Assay results reported in patent US8318725B2, “Aryl indolyl sulfonamide compounds and their use as 5-HT6 ligands” (Suven Life Sciences Limited, priority 2008, dated 2012).
Read-outs that look alike come from different tables or passages of the source.

Tests used:
[1] = tested on: animal models for schizophrenia; conditions: literature statement; cited from earlier work
5-HT6 receptor = conditions: literature statement; cited from earlier work
[2] = Rodent pharmacokinetic study; assay type: in vivo, Male wistar rats; conditions: plasma, Wistar/Male rat, 10 mg/kg; for bioavailability: oral vs intravenous, read-out: Bioavailab; for Cmax / Tmax / half-life / AUC: water; for AUC: read-out: AUC1
Procedure: Rodent Pharmacokinetic Study Male wistar rats (230-280 grams) obtained from NIN (National Institute of Nutrition, Hyderabad, India) were used as an experimental animal. Three to five animals were housed in each cage. Animals were kept fasted over night and maintained on a 12 hours light/dark cycle. Three rats were dosed NCE (10 mg/Kg) orally and intravenously on day 0 and day 2. At each time point blood was collected by jugular vein. Plasma was stored frozen at −20° C. until analysis. The concentrations of the NCE compound in plasma were determined using LC-MS/MS method. Schedule time points: Pre dose 0.25, 0.5, 1, 1.5, 2, 3, 4, 6, 8, 10, 12 and 24 hours after dosing (n=3). The NCE compounds were quantified in plasma by validated LC-MS/MS method using solid phase extraction technique. NCE compounds were quantified in the calibration range of 2-2000 ng/mL in plasma. Study samples were analyzed using calibration samples in the batch and quality control samples spread across the batch. Pharmacokinetic parameters Cmax, Tmax, AUCt, AUCinf, half life, volume of distribution, clearance, mean residence time and thereby oral bioavailability were calculated by non-compartmental model using software WinNonlin version 5.1.

Male Wister rats = experiment: Object recognition task model (NORT); assay type: in vivo; conditions: for NORT Discriminative Index (DI), treatment: p.o., vehicle value in brackets; for NORT Inference: at the dose tested (10 or 30 mg/kg, p.o.)
Procedure: Object Recognition Task Model
The cognition-enhancing properties of compounds of this invention were estimated using a model of animal cognition: the object recognition task model.
Male Wister rats (230-280 grams) obtained from N. I. N. (National Institute of Nutrition, Hyderabad, India) were used as experimental animals. Four animals were housed in each cage. Animals were kept on 20% food deprivation before one day and given water ad libitum throughout the experiment and-maintained on a 12 hours light/dark cycle. Also the rats were habituated to individual arenas for 1 hour in the absence of any objects.
One group of 12 rats received vehicle (1 mL/Kg) orally and another set of animals received compound of the formula (I) either orally or i.p., before one hour of the familiar (T1) and choice trial (T2).
The experiment was carried out in a 50×50×50 cm open field made up of acrylic. In the familiarilation phase, (T1), the rats were placed individually in the open field for 3 minutes, in which two identical objects (plastic bottles, 12.5 cm height×5.5 cm diameter) covered in yellow masking tape alone (a1 and a2) were positioned in two adjacent corners, 10 cm. from the walls. After 24 hours of the (T1) trial for long-term memory test, the same rats were placed in the same arena as they were, placed in T1 trial. Choice phase (T2) rats were allowed to explore the open field for 3 minutes in presence of one familiar object (a3) and one novel object (b) (Amber color glass'bottle, 12 cm high and 5 cm in diameter). Familiar objects presented similar textures, colors and sizes. During the T1 and T2 trial, explorations of each object (defined as sniffing, licking, chewing or having moving vibrissae whilst directing the nose towards the object at a distance of less than 1 cm) were recorded separately by stopwatch. Sitting on an object was not regarded as exploratory activity, however, it was rarely observed. T1 is the total time spent exploring the familiar objects (a1+a2). T2 is the total time spent exploring the familiar object and novel object (a3+b).
The object recognition test was performed as described by Ennaceur, A., Delacour, J., 1988, A new one-trial test for neurobiological studies of memory in rats—Behavioral data, Behay. Brain Res., 31, 47-59.
Some representative compounds have shown positive effects indicating the increased novel object recognition viz; increased exploration time with novel object and higher discrimination index.

rats = experiment: Water maze, scopolamine induced reversal; assay type: in vivo
Procedure: The water maze apparatus consisted of a circular pool (1.8 m diameter, 0.6 m high) constructed in black Perspex (TSE systems, Germany) filled with water (24±2° C.) and positioned underneath a wide-angled video camera to track animal. The 10 cm^2 perspex platform, lying 1 cm below the water surface, was placed in the centre of one of the four imaginary quadrants, which remained constant for all rats. The black Perspex used in the construction of the maze and platform offered no intramaze cues to guide escape behavior. By contrast, the training room offered several strong extramaze visual cues to aid the formation of the spatial map necessary for escape, learning. An automated tracking system, [Videomot 2 (5.51), TSE systems, Germany] was employed. This program analyzes video images acquired via a digital camera and an image acquisition board that determined path length, swim speed and the number of dutation of swim time spent in each quadrant of the water maze.

[3] = Rodent brain penetration study; assay type: in vivo, Male Wister rats; conditions: brain homogenate and plasma; Wistar/Male rat, 10 mg/kg, water, Oral (as in table); read-out: Steady State Brain Penetration (Cb/Cp)
Human 5-HT6 receptor = biological target: T1, Human 5-HT6 receptor (Homo sapiens, UniProt P50406); experiment: Binding assay for human 5-HT6 receptor ([3H] LSD radioligand); conditions: [3H] LSD 1.5 nM, human recombinant receptor in HEK293 cells
T1 construct: expressed in transfected cells; host or cells: HEK293
T1 sequence (P50406 whole entry): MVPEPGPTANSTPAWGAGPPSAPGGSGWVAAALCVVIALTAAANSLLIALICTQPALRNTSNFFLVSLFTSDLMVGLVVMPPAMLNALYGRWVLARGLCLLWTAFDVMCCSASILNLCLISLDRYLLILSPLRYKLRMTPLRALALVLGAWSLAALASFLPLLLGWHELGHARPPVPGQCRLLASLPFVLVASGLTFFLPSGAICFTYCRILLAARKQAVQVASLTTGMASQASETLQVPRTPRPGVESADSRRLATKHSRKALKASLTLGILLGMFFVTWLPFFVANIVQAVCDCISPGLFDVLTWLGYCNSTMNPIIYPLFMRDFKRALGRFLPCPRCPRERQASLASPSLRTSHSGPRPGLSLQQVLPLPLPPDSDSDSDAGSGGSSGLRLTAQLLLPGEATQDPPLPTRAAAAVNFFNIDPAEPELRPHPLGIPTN
Procedure: Binding Assay for Human 5-HT6 Receptor
Compounds can be tested according to the following the procedures. Materials and Methods:
Receptor source: Human recombinant expressed in HEK293 cells
Radioligand: [^3H] LSD (60-80 Ci/mmol)
Final ligand concentration—[1.5 nM]
Non-specific determinant: Methiothepin mesylate—[0.1 μM]
Reference compound: Methiothepin mesylate
Positive control: Methiothepin mesylate
Reactions were carried out in […] TRIS-HCl (pH 7.4) containing 10 μM MgCl2, 0.5 mM EDTA for 60 minutes at 37° C. The reaction was terminated by rapid vacuum filtration onto glass fiber filters. Radioactivity trapped onto the filters was determined and compared to control values in order to ascertain any interactions of test compound(s) with the cloned serotonin 5-HT6binding site.
Literature Reference: Monsma F. J. Jr., et al., Molecular Cloning and Expression of Novel Serotonin Receptor with High Affinity for Tricyclic Psychotropic Drugs. Mol. Pharmacol. (43): 320-327 (1993).

**Q.** For COc1ccc(NS(=O)(=O)c2sc3ccc(Cl)cc3c2C)cc1N1CCNCC1 [SB-271046, 5-Chloro-N-(4-methoxy-3-piperazin-1-ylphenyl)-3-methyl-2-benzothiophenesulfonamide], which “Activity in animal tests related to positive or negative symptoms of schizophrenia” value [1] is on record?
**A.** Its value is “inactive”.

**Q.** For CN1CCN2c3ccccc3Cc3ccccc3C2C1 (centres unmarked) [mianserin], which “Affinity for the 5-HT6 receptor” value (5-HT6 receptor) is on record?
**A.** Its value is “high affinity”.

**Q.** For Cc1ccc(S(=O)(=O)n2ccc3ccccc32)cc1CN1CCN(C)CC1.Cl.Cl [Example 22, 1-[4-methyl-3-(4-methylpiperazin-1-ylmethyl)benzenesulfonyl]-1H-indole dihydrochloride], which bioavailability [2] is on record?
**A.** The bioavailability was 30 ± 7%.

**Q.** And the Cmax ([2]; Intravenous)?
**A.** Its Cmax is 4320 ± 1680 ng/mL.

**Q.** And the Tmax ([2]; Intravenous)?
**A.** Its Tmax is 0.08 h.

**Q.** What about the half-life ([2]; Intravenous) of the same molecule?
**A.** Its half-life is 2.69 ± 1.51 h.

**Q.** And the AUC ([2]; Intravenous)?
**A.** The AUC was 5130 ± 1750 ng·h/mL.

**Q.** What about the Cmax ([2]; Oral) of the same molecule?
**A.** Its Cmax is 1380 ± 427 ng/mL.

**Q.** And the Tmax ([2]; Oral)?
**A.** Its Tmax is 0.38 ± 0.18 h.

**Q.** And the half-life ([2]; Oral)?
**A.** The half-life was 7.85 ± 2.62 h.

**Q.** What about the AUC ([2]; Oral) of the same molecule?
**A.** Its AUC is 3190 ± 1750 ng·h/mL.

**Q.** What about the “NORT Discriminative Index (DI), treatment” value (shortened to “NORT Discriminative Index”) (Male Wister rats; 10 mg/kg) of the same molecule?
**A.** The value was 0.57 (0.54).

**Q.** What about the “NORT Inference” value (Male Wister rats) of the same molecule?
**A.** Its value is “Active”.

**Q.** And the “Scopolamine Induced Reversal” value (rats)?
**A.** Its value is >30 mg/kg, p.o.

**Q.** And the Kp [3]?
**A.** The Kp was 2.03 ± 0.42.

**Q.** And the Ki (Human 5-HT6 receptor)?
**A.** Its Ki is 7.01 nM.

**Q.** With CN(C)CCC=C1c2ccccc2CCc2ccccc21 [amitriptyline] as the molecule, how does the “Affinity for the 5-HT6 receptor” value (5-HT6 receptor) read?
**A.** Its value is “high affinity”.

**Q.** With CN1CCN(Cc2cccc(S(=O)(=O)n3ccc4ccccc43)c2)CC1 [Example 8, 1-[3-(4-Methylpiperazin-1-ylmethyl)benzenesulfonyl]-1H-indole] as the molecule, how does the “NORT Discriminative Index” value (Male Wister rats; 10 mg/kg) read?
**A.** Its value is 0.58 (0.45).

**Q.** What about the “NORT Inference” value (Male Wister rats) of the same molecule?
**A.** Its value is “Active”.

**Q.** And the “Scopolamine Induced Reversal” value (rats)?
**A.** Its value is “≧30 mg/kg, p.o”.

**Q.** And the Ki (Human 5-HT6 receptor)?
**A.** The Ki was 1.91 nM.

**Q.** Which results are given for CCN1CCN(Cc2cc(S(=O)(=O)n3ccc4ccccc43)ccc2C)CC1.Cl.Cl [Example 23, 1-[4-methyl-3-(4-ethylpiperazin-1-ylmethyl)benzenesulfonyl]-1H-indole dihydrochloride]?
**A.** bioavailability [2]: 14 ± 10%; Cmax ([2]; Intravenous): 4680 ± 617 ng/mL; Tmax ([2]; Intravenous): 0.08 h; half-life ([2]; Intravenous): 6.25 ± 0.35 h; AUC ([2]; Intravenous): 4070 ± 888 ng·h/mL; Cmax ([2]; Oral): 749 ± 836 ng/mL; Tmax ([2]; Oral): 0.5 ± 0.43 h; half-life ([2]; Oral): 3.18 ± 1.71 h; AUC ([2]; Oral): 1170 ± 1050 ng·h/mL; NORT Discriminative Index (DI), treatment (Male Wister rats; 30 mg/kg): 0.58 (0.49); NORT Inference (Male Wister rats): Active; Scopolamine Induced Reversal (rats): ≧30 mg/kg, p.o; Kp [3]: 0.53 ± 0.13; melting point: 250.13 °C; Ki (Human 5-HT6 receptor): 3.96 nM

**Q.** Which bioavailability [2] does the source give for Cc1cn(S(=O)(=O)c2ccc(Cl)c(CN3CCN(C)CC3)c2)c2ccccc12.Cl.Cl [Example 35, 1-[4-Chloro-3-(4-methylpiperazin-1-ylmethyl)benzenesulfonyl]-3-methyl-1H-indole dihydrochloride] here?
**A.** The bioavailability was 10 ± 6%.

**Q.** What about the Cmax ([2]; Intravenous) of the same molecule?
**A.** The Cmax was 481 ± 331 ng/mL.

**Q.** And the Tmax ([2]; Intravenous)?
**A.** Its Tmax is 0.08 h.

**Q.** What about the half-life ([2]; Intravenous) of the same molecule?
**A.** The half-life was 5.84 ± 2.21 h.

**Q.** What about the AUC ([2]; Intravenous) of the same molecule?
**A.** Its AUC is 808 ± 156 ng·h/mL.

**Q.** And the Cmax ([2]; Oral)?
**A.** The Cmax was 106 ± 1 ng/mL.

**Q.** What about the Tmax ([2]; Oral) of the same molecule?
**A.** Its Tmax is 0.38 ± 0.18 h.

**Q.** What about the half-life ([2]; Oral) of the same molecule?
**A.** The half-life was 1.73 ± 0.56 h.

**Q.** What about the AUC ([2]; Oral) of the same molecule?
**A.** Its AUC is 342 ± 152 ng·h/mL.

**Q.** And the “NORT Discriminative Index” value (Male Wister rats; 30 mg/kg)?
**A.** Its value is 0.63 (0.49).

**Q.** And the “NORT Inference” value (Male Wister rats)?
**A.** Its value is “Active”.

**Q.** And the “Scopolamine Induced Reversal” value (rats)?
**A.** Its value is >30 mg/kg, p.o.

**Q.** And the Kp [3]?
**A.** Its Kp is 1.61 ± 0.39.

**Q.** What about the melting point of the same molecule?
**A.** Its melting point is 216.9 to 218.7 °C.

**Q.** What about the Ki (Human 5-HT6 receptor) of the same molecule?
**A.** Its Ki is 5.45 nM.

**Q.** With Cc1ccc(S(=O)(=O)n2ccc3cc(F)ccc32)cc1CN1CCN(C)CC1.Cl.Cl [Example 43, 1-[4-Methyl-3-(4-methylpiperazin-1-ylmethyl)benzenesulfonyl]-5-fluoro-1H-indole dihydrochloride] as the molecule, how does the melting point read?
**A.** The melting point was 220.3 to 223.4 °C.

**Q.** What about the inhibition at 0.1 µM (Human 5-HT6 receptor; 100 nM test compound, read-out: % Inhibition of specific binding at 100 nM) of the same molecule?
**A.** The inhibition at 0.1 µM was 86.2%.
